Test results: PubChem BioAssay (NCI)
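Exposure lasted 48 hours, with cells grown in 96-well plates and compounds tested at five concentrations. Definition used: TGI = concentration required for complete inhibition of growth.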

Legend:
Test in all cases: DTP human tumour cell line panel, 48 h
SNB-78 CNS = tested on: SNB-78 CNS
HOP-92 NSCLC = tested on: HOP-92 NSCLC
NCI-H522 lung = tested on: NCI-H522 lung
CAKI-1 renal = tested on: CAKI-1 renal
TK-10 renal = tested on: TK-10 renal
SK-MEL-28 melanoma = tested on: SK-MEL-28 melanoma
SNB-19 CNS = tested on: SNB-19 CNS
A498 renal = tested on: A498 renal
SF-268 CNS = tested on: SF-268 CNS
XF 498 CNS = tested on: XF 498 CNS
UO-31 renal = tested on: UO-31 renal
U251 CNS = tested on: U251 CNS
UACC-257 melanoma = tested on: UACC-257 melanoma
DLD-1 colon = tested on: DLD-1 colon
HOP-18 NSCLC = tested on: HOP-18 NSCLC
OVCAR-4 ovarian = tested on: OVCAR-4 ovarian
HL-60(TB) leukemia = tested on: HL-60(TB) leukemia
SF-539 CNS = tested on: SF-539 CNS
NCI-H460 lung = tested on: NCI-H460 lung
HCT-116 colon = tested on: HCT-116 colon
SW-620 colon = tested on: SW-620 colon
RPMI-8226 leukemia = tested on: RPMI-8226 leukemia
EKVX NSCLC = tested on: EKVX NSCLC
OVCAR-3 ovarian = tested on: OVCAR-3 ovarian
HCT-15 colon = tested on: HCT-15 colon
KM12 colon = tested on: KM12 colon
OVCAR-8 ovarian = tested on: OVCAR-8 ovarian
KM20L2 colon = tested on: KM20L2 colon
IGROV1 ovarian = tested on: IGROV1 ovarian
M19-MEL melanoma = tested on: M19-MEL melanoma
A549 NSCLC = tested on: A549 NSCLC
COLO 205 colon = tested on: COLO 205 colon
HCC-2998 colon = tested on: HCC-2998 colon
MALME-3M melanoma = tested on: MALME-3M melanoma
ACHN renal = tested on: ACHN renal
HT29 colon = tested on: HT29 colon
M14 melanoma = tested on: M14 melanoma
CCRF-CEM leukemia = tested on: CCRF-CEM leukemia
NCI-H23 lung = tested on: NCI-H23 lung
K-562 leukemia = tested on: K-562 leukemia
SNB-75 CNS = tested on: SNB-75 CNS
SK-OV-3 ovarian = tested on: SK-OV-3 ovarian
786-0 renal = tested on: 786-0 renal
RXF 393 renal = tested on: RXF 393 renal
SR leukemia = tested on: SR leukemia
SN12C renal = tested on: SN12C renal
MOLT-4 leukemia = tested on: MOLT-4 leukemia
DMS 273 small cell lung = tested on: DMS 273 small cell lung
LXFL 529 NSCLC = tested on: LXFL 529 NSCLC
UACC-62 melanoma = tested on: UACC-62 melanoma
DMS 114 small cell lung = tested on: DMS 114 small cell lung
NCI-H226 lung = tested on: NCI-H226 lung
LOX IMVI melanoma = tested on: LOX IMVI melanoma
SF-295 CNS = tested on: SF-295 CNS
HOP-62 NSCLC = tested on: HOP-62 NSCLC
OVCAR-5 ovarian = tested on: OVCAR-5 ovarian
SK-MEL-2 melanoma = tested on: SK-MEL-2 melanoma
SK-MEL-5 melanoma = tested on: SK-MEL-5 melanoma
MDA-MB-435 = tested on: MDA-MB-435
MDA-MB-231 breast = tested on: MDA-MB-231 breast
MCF7 breast = tested on: MCF7 breast
MDA-N = tested on: MDA-N
HS 578T breast = tested on: HS 578T breast
DU-145 prostate = tested on: DU-145 prostate
PC-3 prostate = tested on: PC-3 prostate
NCI/ADR-RES ovarian = tested on: NCI/ADR-RES ovarian
T-47D breast = tested on: T-47D breast
BT-549 breast = tested on: BT-549 breast

For `O=c1nc(-c2ccccc2)cc(-c2ccccc2O)[nH]1`, the TGI (SNB-78 CNS) was over 100 µM, the TGI (HOP-92 NSCLC) was over 100 µM and the TGI (NCI-H522 lung) was over 100 µM. The TGI (CAKI-1 renal) was over 100 µM, the TGI (TK-10 renal) was over 100 µM and the TGI (SK-MEL-28 melanoma) was over 100 µM. It also gave a TGI (SNB-19 CNS) of over 100 µM, a TGI (A498 renal) of over 100 µM and a TGI (SF-268 CNS) of over 100 µM. For the same molecule, the TGI (XF 498 CNS) was over 100 µM, the TGI (UO-31 renal) was over 100 µM and the TGI (U251 CNS) was over 100 µM. It also gave a TGI (UACC-257 melanoma) of over 100 µM, a TGI (DLD-1 colon) of over 100 µM and a TGI (HOP-18 NSCLC) of over 100 µM. The TGI (OVCAR-4 ovarian) was over 100 µM, the TGI (HL-60(TB) leukemia) was over 100 µM and the TGI (SF-539 CNS) was over 100 µM. The TGI (NCI-H460 lung) was over 100 µM, the TGI (HCT-116 colon) was over 100 µM and the TGI (SW-620 colon) was over 100 µM. It also gave a TGI (RPMI-8226 leukemia) of over 100 µM, a TGI (EKVX NSCLC) of over 100 µM and a TGI (OVCAR-3 ovarian) of over 100 µM. The TGI (HCT-15 colon) was over 100 µM, the TGI (KM12 colon) was over 100 µM and the TGI (OVCAR-8 ovarian) was over 100 µM. It also gave a TGI (KM20L2 colon) of over 100 µM, a TGI (IGROV1 ovarian) of over 100 µM and a TGI (M19-MEL melanoma) of over 100 µM. It also gave a TGI (A549 NSCLC) of over 100 µM, a TGI (COLO 205 colon) of over 100 µM and a TGI (HCC-2998 colon) of over 100 µM. It also gave a TGI (MALME-3M melanoma) of over 100 µM, a TGI (ACHN renal) of over 100 µM and a TGI (HT29 colon) of over 100 µM. It also gave a TGI (M14 melanoma) of over 100 µM, a TGI (CCRF-CEM leukemia) of over 100 µM and a TGI (NCI-H23 lung) of over 100 µM. It also gave a TGI (K-562 leukemia) of over 100 µM, a TGI (SNB-75 CNS) of over 100 µM and a TGI (SK-OV-3 ovarian) of over 100 µM. For the same molecule, the TGI (786-0 renal) was over 100 µM, the TGI (RXF 393 renal) was over 100 µM and the TGI (SR leukemia) was over 100 µM. It also gave a TGI (SN12C renal) of over 100 µM, a TGI (MOLT-4 leukemia) of over 100 µM and a TGI (DMS 273 small cell lung) of over 100 µM. The TGI (LXFL 529 NSCLC) was over 100 µM, the TGI (UACC-62 melanoma) was over 100 µM and the TGI (DMS 114 small cell lung) was over 100 µM. For the same molecule, the TGI (NCI-H226 lung) was over 100 µM, the TGI (LOX IMVI melanoma) was over 100 µM and the TGI (SF-295 CNS) was over 100 µM. For the same molecule, the TGI (HOP-62 NSCLC) was over 100 µM and the TGI (OVCAR-5 ovarian) was over 100 µM.
Work on `CC(C(=O)n1c2ccccc2c2ccccc21)N(c1ccccc1)c1ccccc1` (configuration not stated) yielded a TGI (SNB-78 CNS) of 32 µM, a TGI (NCI-H522 lung) of 6.48 µM and a TGI (CAKI-1 renal) of 27.7 µM. It also gave a TGI (TK-10 renal) of 34.5 µM, a TGI (SK-MEL-28 melanoma) of 34.4 µM and a TGI (SNB-19 CNS) of over 100 µM. The TGI (SF-268 CNS) was 36.2 µM, the TGI (UO-31 renal) was 35.1 µM and the TGI (U251 CNS) was 34.7 µM. It also gave a TGI (UACC-257 melanoma) of 32.3 µM, a TGI (DLD-1 colon) of 43 µM and a TGI (HL-60(TB) leukemia) of 20.6 µM. The TGI (SF-539 CNS) was 34.7 µM, the TGI (NCI-H460 lung) was over 100 µM and the TGI (SK-MEL-2 melanoma) was 28.4 µM. For the same molecule, the TGI (HCT-116 colon) was 32.7 µM, the TGI (SW-620 colon) was 36 µM and the TGI (RPMI-8226 leukemia) was 36.2 µM. It also gave a TGI (EKVX NSCLC) of 38.8 µM, a TGI (OVCAR-3 ovarian) of 31.7 µM and a TGI (HCT-15 colon) of 32.8 µM. The TGI (OVCAR-8 ovarian) was 37.7 µM, the TGI (KM20L2 colon) was 33.1 µM and the TGI (IGROV1 ovarian) was 32.6 µM. The TGI (M19-MEL melanoma) was 32.5 µM, the TGI (A549 NSCLC) was 38.5 µM and the TGI (COLO 205 colon) was 32 µM. The TGI (HCC-2998 colon) was 30.1 µM, the TGI (MALME-3M melanoma) was 28.5 µM and the TGI (ACHN renal) was 30.7 µM. The TGI (HT29 colon) was 37.7 µM, the TGI (M14 melanoma) was 30.5 µM and the TGI (CCRF-CEM leukemia) was 4.02 µM. The TGI (NCI-H23 lung) was 34.6 µM, the TGI (K-562 leukemia) was 40.7 µM and the TGI (SNB-75 CNS) was 37.8 µM. The TGI (SK-OV-3 ovarian) was 36.2 µM, the TGI (786-0 renal) was 30.2 µM and the TGI (SK-MEL-5 melanoma) was 35.1 µM. It also gave a TGI (RXF 393 renal) of 28.4 µM, a TGI (SR leukemia) of 27.7 µM and a TGI (SN12C renal) of 41.4 µM. For the same molecule, the TGI (MOLT-4 leukemia) was 29.3 µM, the TGI (DMS 273 small cell lung) was 34.1 µM and the TGI (LXFL 529 NSCLC) was 27.9 µM. It also gave a TGI (UACC-62 melanoma) of 31.7 µM, a TGI (DMS 114 small cell lung) of 32.5 µM and a TGI (NCI-H226 lung) of 47.7 µM. The TGI (LOX IMVI melanoma) was 30.6 µM, the TGI (SF-295 CNS) was 37.1 µM and the TGI (HOP-62 NSCLC) was 32 µM. The TGI (OVCAR-5 ovarian) was 33.6 µM.
`CC1=C[C@@H](C)C[C@]2(C)CC[C@H](O2)[C@]23CC[C@](C(=O)O)(C[C@H](O2)[C@@H]2O[C@@](C)(CC2=O)[C@@H](O)[C@H]2CC[C@@]4(CCC[C@@H](O4)[C@H](C)C(=O)O[C@H]4C[C@H]([C@]5(O)OCC[C@H](C)[C@@H]5O)O[C@H]4C=C1)O2)O3` was tested, and the TGI (MDA-MB-435) was over 10 µM, the TGI (MDA-MB-231 breast) was over 10 µM and the TGI (HOP-92 NSCLC) was over 8.25 µM. The TGI (NCI-H522 lung) was over 10 µM, the TGI (CAKI-1 renal) was over 10 µM and the TGI (TK-10 renal) was over 10 µM. It also gave a TGI (SK-MEL-28 melanoma) of over 10 µM, a TGI (SNB-19 CNS) of over 10 µM and a TGI (A498 renal) of over 10 µM. It also gave a TGI (SF-268 CNS) of over 10 µM, a TGI (UO-31 renal) of over 10 µM and a TGI (U251 CNS) of over 10 µM. The TGI (MCF7 breast) was over 10 µM, the TGI (UACC-257 melanoma) was over 10 µM and the TGI (OVCAR-4 ovarian) was over 10 µM. The TGI (MDA-N) was over 10 µM, the TGI (HL-60(TB) leukemia) was over 10 µM and the TGI (HS 578T breast) was over 5.94 µM. For the same molecule, the TGI (SF-539 CNS) was over 10 µM, the TGI (NCI-H460 lung) was over 10 µM and the TGI (SK-MEL-2 melanoma) was over 10 µM. It also gave a TGI (DU-145 prostate) of over 10 µM, a TGI (HCT-116 colon) of over 10 µM and a TGI (PC-3 prostate) of over 10 µM. For the same molecule, the TGI (SW-620 colon) was over 10 µM, the TGI (RPMI-8226 leukemia) was over 10 µM and the TGI (EKVX NSCLC) was over 10 µM. The TGI (OVCAR-3 ovarian) was over 10 µM, the TGI (HCT-15 colon) was over 10 µM and the TGI (KM12 colon) was over 10 µM. The TGI (NCI/ADR-RES ovarian) was over 10 µM, the TGI (OVCAR-8 ovarian) was over 10 µM and the TGI (IGROV1 ovarian) was over 10 µM. It also gave a TGI (A549 NSCLC) of over 10 µM, a TGI (COLO 205 colon) of over 10 µM and a TGI (HCC-2998 colon) of over 10 µM. For the same molecule, the TGI (MALME-3M melanoma) was over 10 µM, the TGI (ACHN renal) was over 10 µM and the TGI (T-47D breast) was over 10 µM. For the same molecule, the TGI (HT29 colon) was over 10 µM, the TGI (M14 melanoma) was over 10 µM and the TGI (CCRF-CEM leukemia) was over 10 µM. The TGI (NCI-H23 lung) was over 10 µM, the TGI (K-562 leukemia) was over 10 µM and the TGI (SNB-75 CNS) was over 6.85 µM. The TGI (SK-OV-3 ovarian) was over 10 µM, the TGI (786-0 renal) was over 10 µM and the TGI (SK-MEL-5 melanoma) was over 10 µM. For the same molecule, the TGI (BT-549 breast) was over 10 µM, the TGI (RXF 393 renal) was over 10 µM and the TGI (SR leukemia) was over 10 µM. The TGI (SN12C renal) was over 10 µM, the TGI (MOLT-4 leukemia) was over 10 µM and the TGI (UACC-62 melanoma) was over 10 µM. It also gave a TGI (NCI-H226 lung) of over 10 µM, a TGI (LOX IMVI melanoma) of over 10 µM and a TGI (SF-295 CNS) of over 10 µM. It also gave a TGI (HOP-62 NSCLC) of over 10 µM and a TGI (OVCAR-5 ovarian) of over 10 µM.
